Results taken from the supplement of paper PMC13380429.

Tests used:
Details in all cases: 72 h
[1] = system: Caco-2; assay: cell viability relative to DMSO; higher = less toxic
[2] = system: Calu-3; assay: as above
[3] = system: HepG2; assay: as above
[4] = system: U2OS; assay: as above
[5] = system: Vero E6; assay: as above
[6] = system: Caco-2; assay: relative viability EC50 (midpoint between 100% and the lowest measured viability); higher = less toxic
[7] = system: Calu-3; assay: as above
[8] = system: HepG2; assay: as above
[9] = system: U2OS; assay: as above
[10] = system: Vero E6; assay: as above
[11] = system: Caco-2; assay: drug sensitivity score (DSS) for viability; higher = more toxic; extreme values may be limits of the assay
[12] = system: Calu-3; assay: as above
[13] = system: HepG2; assay: as above
[14] = system: U2OS; assay: as above
[15] = system: Vero E6; assay: as above

Compound | cell viability ([1]; 1 nM) [%] | cell viability ([1]; 10 nM) [%] | cell viability ([1]; 100 nM) [%] | cell viability ([1]; 1000 nM) [%] | cell viability ([1]; 10000 nM) [%] | cell viability ([2]; 1 nM) [%] | cell viability ([2]; 10 nM) [%] | cell viability ([2]; 100 nM) [%] | cell viability ([2]; 1000 nM) [%] | cell viability ([2]; 10000 nM) [%] | cell viability ([3]; 1 nM) [%] | cell viability ([3]; 10 nM) [%] | cell viability ([3]; 100 nM) [%] | cell viability ([3]; 1000 nM) [%] | cell viability ([3]; 10000 nM) [%] | cell viability ([4]; 1 nM) [%] | cell viability ([4]; 10 nM) [%] | cell viability ([4]; 100 nM) [%] | cell viability ([4]; 1000 nM) [%] | cell viability ([4]; 10000 nM) [%] | cell viability ([5]; 1 nM) [%] | cell viability ([5]; 10 nM) [%] | cell viability ([5]; 100 nM) [%] | cell viability ([5]; 1000 nM) [%] | cell viability ([5]; 10000 nM) [%] | relative viability EC50 [6] [µM] | relative viability EC50 [7] [µM] | relative viability EC50 [8] [µM] | relative viability EC50 [9] [µM] | relative viability EC50 [10] [µM] | drug sensitivity score [11] | drug sensitivity score [12] | drug sensitivity score [13] | drug sensitivity score [14] | drug sensitivity score [15]
C#C[C@]1(O)CC[C@H]2[C@@H]3CCC4=CC(=O)CC[C@]4(C)[C@H]3CC[C@@]21C [ethisterone] | 89.4 | 103 | 89.4 | 91.1 | 97.5 | 95.7 | 95.9 | 103 | 103 | 102 | 109 | 102 | 97.9 | 95.1 | 97.6 | 97.3 | 103 | 94.6 | 96.4 | 102 | 106 | 102 | 105 | 101 | 95.6 | > 10 | > 10 | > 10 | > 10 | > 10 | 0 | 0 | 0 | 0 | 0
CCOC(=O)[C@H](CCc1ccccc1)N[C@@H](C)C(=O)N1Cc2cc(OC)c(OC)cc2C[C@H]1C(=O)O [moexipril] | 106 | 96 | 101 | 89.3 | 98.2 | 97 | 97 | 107 | 111 | 104 | 95.8 | 98.6 | 96 | 95.5 | 92.2 | 96 | 102 | 92.8 | 100 | 95.7 | 96.2 | 102 | 96.6 | 96.9 | 102 | > 10 | > 10 | > 10 | > 10 | > 10 | 0 | 0 | 0 | 0 | 0
CC1(CN)Cc2ccccc2C1 [ORG-9768] | 93 | 87.1 | 101 | 93.9 | 110 | 109 | 105 | 95.4 | 102 | 96.9 | 98 | 109 | 96.3 | 112 | 102 | 99.5 | 98 | 101 | 102 | 102 | 91.2 | 96.8 | 94 | 98.5 | 109 | > 10 | > 10 | > 10 | > 10 | > 10 | 0 | 0 | 0 | 0 | 0
CCn1c(=O)c2c(nc(/C=C/c3ccc(OC)c(OC)c3)n2C)n(CC)c1=O [istradefylline] | 97.7 | 89.7 | 104 | 103 | 106 | 87.5 | 93.8 | 94.4 | 101 | 103 | 97.1 | 94.1 | 101 | 98.9 | 112 | 102 | 97.9 | 101 | 104 | 102 | 103 | 97.1 | 93.6 | 96.4 | 104 | > 10 | > 10 | > 10 | > 10 | > 10 | 0 | 0 | 0 | 0 | 0
c1ccc(-c2ccc(CNc3nc(-c4ccccn4)nnc3-c3ccccc3)cc2)cc1 [ML228] | 104 | 98.2 | 89.3 | 49.5 | 13.6 | 96 | 102 | 101 | 48.6 | 17.5 | 91.4 | 104 | 103 | 31.4 | 21 | 100 | 99.1 | 94.3 | 38.8 | 3.6 | 93.1 | 92.3 | 97 | 9.5 | 4.5 | 0.692 | 0.818 | 0.484 | 0.685 | 0.339 | 11.2 | 10.7 | 12.5 | 12.8 | 16.9
CN(C)[C@@H]1C(O)=C(C(N)=O)C(=O)[C@@]2(O)C(O)=C3C(=O)c4c(O)ccc(Cl)c4[C@@H](O)[C@H]3C[C@@H]12 [demeclocycline] | 99.9 | 95.9 | 101 | 95.5 | 96.3 | 112 | 115 | 102 | 98.9 | 93.4 | 89.5 | 97.6 | 97.3 | 102 | 94.9 | 105 | 98 | 101 | 96.3 | 93.8 | 98.1 | 103 | 110 | 99.6 | 91 | > 10 | > 10 | > 10 | > 10 | > 10 | 0 | 0 | 0 | 0 | 0
COc1cc(CN(CCN)C(=O)c2cccs2)ccc1OCc1ccccc1 [M8-B] | 89.5 | 98.4 | 101 | 95.6 | 89.1 | 103 | 89.1 | 108 | 99.7 | 98.5 | 99.8 | 96.5 | 91.1 | 110 | 96.2 | 95.1 | 97.6 | 102 | 95.7 | 95.4 | 94.8 | 94.1 | 97.2 | 98 | 102 | > 10 | > 10 | > 10 | > 10 | > 10 | 0.1 | 0 | 0 | 0 | 0
CSCC1CN(/N=C/c2ccc([N+](=O)[O-])o2)C(=O)O1 (stereo not given) [inimur] | 90.6 | 97.7 | 92.7 | 94.5 | 89.4 | 89.9 | 97.4 | 96.8 | 104 | 101 | 100 | 93.8 | 96.5 | 94.3 | 93 | 98.2 | 101 | 95.8 | 101 | 105 | 96.6 | 96.4 | 89.7 | 89 | 95 | > 10 | > 10 | > 10 | > 10 | > 10 | 0 | 0 | 0 | 0 | 0
Cc1c(O)c(=O)ccn1C [deferiprone] | 92.4 | 98.3 | 93.4 | 116 | 93.4 | 89.6 | 106 | 109 | 100 | 98.2 | 103 | 97.4 | 98.3 | 97.1 | 101 | 96.5 | 100 | 100 | 94.5 | 96.2 | 101 | 102 | 99.3 | 98.1 | 99.9 | > 10 | > 10 | > 10 | > 10 | > 10 | 0 | 0 | 0 | 0 | 0
C[C@H](C[C@H](N)C(=O)O)C(=O)O [SYM-2081] | 103 | 96 | 105 | 97.5 | 98.4 | 102 | 88.4 | 96.6 | 95.3 | 102 | 104 | 88.4 | 91.9 | 96.6 | 93.8 | 100 | 97.5 | 100 | 97.7 | 106 | 101 | 102 | 95.1 | 104 | 93.4 | > 10 | > 10 | > 10 | > 10 | > 10 | 0 | 0 | 0 | 0 | 0
CC(C)(C)C(=O)/C(=N/c1ccc(Cl)cc1)NNc1ccc(Cl)cc1 | 82.3 | 91.6 | 91.4 | 96.6 | 83.9 | 97.8 | 107 | 98.8 | 98.6 | 102 | 105 | 95 | 95.5 | 95.3 | 97.6 | 96.7 | 107 | 102 | 103 | 94 | 97.5 | 99.3 | 102 | 97.2 | 107 | > 10 | > 10 | > 10 | > 10 | > 10 | 0 | 0 | 0 | 0 | 0
Nc1nc(Nc2ccccc2)nc2c1ncn2[C@@H]1O[C@H](CO)[C@@H](O)[C@H]1O [CV-1808] | 98.9 | 93 | 101 | 105 | 99.3 | 101 | 106 | 93 | 110 | 106 | 95.4 | 94.2 | 109 | 98.8 | 94.9 | 103 | 100 | 98.5 | 106 | 105 | 94 | 93 | 94.5 | 96.3 | 97.2 | > 10 | > 10 | > 10 | > 10 | > 10 | 0 | 0 | 0 | 0 | 0
COc1cc2c3cc1Oc1cc(ccc1O)C[C@@H]1c4c(cc(OC)c(O)c4Oc4ccc(cc4)C[C@@H]3N(C)CC2)CC[N+]1(C)C [tubocurarine] | 93.5 | 115 | 102 | 108 | 111 | 107 | 102 | 103 | 102 | 91.3 | 99.5 | 94.5 | 94.6 | 94.6 | 97.6 | 93.5 | 97.2 | 98.4 | 99.9 | 106 | 108 | 88.9 | 107 | 98.4 | 118 | > 10 | > 10 | > 10 | > 10 | > 10 | 0 | 0 | 0 | 0 | 0
c1ccc2c(c1)sc1ccccc12 [dibenzothiophene] | 101 | 98.7 | 99.9 | 91.1 | 99.8 | 99.4 | 103 | 92.1 | 96.1 | 101 | 102 | 96.8 | 104 | 106 | 101 | 105 | 101 | 104 | 96.7 | 104 | 100 | 96.6 | 99 | 98.5 | 98.8 | > 10 | > 10 | > 10 | > 10 | > 10 | 0 | 0 | 0 | 0 | 0
